Test results from PubChem BioAssay AID256 (DTP/NCI, 2004).
Values joined by “and” are separate entries in the source; they are usually repeats but may differ in a detail not shown here. Equal values may be shown once. Toxic doses and inconclusive results are not listed.

Tested on: CD2F1 mice, L1210 leukemia ip, survival T/C
Assay: NCI In Vivo Anticancer Drug Screen. Data for tumor model L1210 Leukemia (intraperitoneal) in CD2F1 (CDF1) mice
Conditions: higher = longer survival
Procedure, shortened: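 Transplantable tumor in mice; compound-treated vs vehicle-treated groups. Read-out = treated/control ratio of the measured endpoint.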

## CNNCc1ccc(C(=O)NC(C)C)cc1
endpoint: mean survival time, dose: 3.13 mg/kg/injection, schedule: Q01DX010 (ip), vehicle: saline
  T/C: 96 % of control
endpoint: mean survival time, dose: 6.25 mg/kg/injection, schedule: Q01DX010 (ip), vehicle: saline
  T/C: 106 % of control
endpoint: mean survival time, dose: 6.25 mg/kg/injection, schedule: Q01DX010 (sc), vehicle: saline
  T/C: 103 % of control
endpoint: mean survival time, dose: 12.5 mg/kg/injection, schedule: Q01DX010 (ip), vehicle: saline
  T/C: 108 % of control
endpoint: mean survival time, dose: 25.0 mg/kg/injection, schedule: Q01DX010 (oral), vehicle: saline
  T/C: 120 % of control
endpoint: mean survival time, dose: 25.0 mg/kg/injection, schedule: Q01DX010 (sc), vehicle: saline
  T/C: 116 % of control
endpoint: mean survival time, dose: 29.7 mg/kg/injection, schedule: Q01DX009 (ip), vehicle: saline
  T/C: 110 % of control
endpoint: mean survival time, dose: 38.0 mg/kg/injection, schedule: Q03DX004 (ip), vehicle: saline
  T/C: 100 % of control
endpoint: mean survival time, dose: 50.0 mg/kg/injection, schedule: Q01DX010 (sc), vehicle: saline
  T/C: 120 % of control
endpoint: mean survival time, dose: 100.0 mg/kg/injection, schedule: Q04DX003 (ip), vehicle: saline
  T/C: 112 % of control
endpoint: mean survival time, dose: 133.0 mg/kg/injection, schedule: Q01DX009 (ip), vehicle: saline
  T/C: 159 % of control and 170 % of control
endpoint: mean survival time, dose: 150.0 mg/kg/injection, schedule: Q03DX004 (ip), vehicle: saline
  T/C: 108 % of control
endpoint: mean survival time, dose: 200.0 mg/kg/injection, schedule: Q01DX007 (ip), vehicle: saline
  T/C: 179 % of control

## NC(=O)NC(=O)C1CCCCC1C(=O)O (stereo unspecified)
endpoint: mean survival time, dose: 100.0 mg/kg/injection, schedule: Q01DX001 (ip), vehicle: saline
  T/C: 103 % of control
endpoint: mean survival time, dose: 200.0 mg/kg/injection, schedule: Q01DX001 (ip), vehicle: saline
  T/C: 101 % of control
endpoint: mean survival time, dose: 400.0 mg/kg/injection, schedule: Q01DX001 (ip), vehicle: saline
  T/C: 109 % of control

## CC1CCC(NC(=O)N(CCCl)N=O)CC1 (stereo unspecified)
endpoint: mean survival time, dose: 0.5 mg/kg/injection, schedule: Q01DX009 (ip), vehicle: saline + alcohol
  T/C: 96 % of control
endpoint: mean survival time, dose: 1.0 mg/kg/injection, schedule: Q01DX009 (ip), vehicle: saline + alcohol
  T/C: 109 % of control
endpoint: mean survival time, dose: 2.0 mg/kg/injection, schedule: Q01DX009 (ip), vehicle: saline + alcohol
  T/C: 109 % of control
endpoint: mean survival time, dose: 3.12 mg/kg/injection, schedule: Q01DX001 (ip), vehicle: other
  T/C: 105 % of control and 110 % of control
endpoint: mean survival time, dose: 3.13 mg/kg/injection, schedule: Q01DX001 (ip), vehicle: saline with Tween-80
  T/C: 103 % of control
endpoint: mean survival time, dose: 4.0 mg/kg/injection, schedule: Q01DX001 (ip), vehicle: other
  T/C: 107 % of control
endpoint: mean survival time, dose: 4.0 mg/kg/injection, schedule: Q01DX001 (ip), vehicle: saline + alcohol
  T/C: 104 % of control
endpoint: mean survival time, dose: 4.0 mg/kg/injection, schedule: Q01DX009 (ip), vehicle: saline + alcohol
  T/C: 151 % of control and 185 % of control
endpoint: mean survival time, dose: 5.0 mg/kg/injection, schedule: Q04DX003 (ip), vehicle: other
  T/C: 192 % of control
endpoint: mean survival time, dose: 6.25 mg/kg/injection, schedule: Q01DX001 (ip), vehicle: saline + alcohol
  T/C: 98 % of control
endpoint: mean survival time, dose: 6.25 mg/kg/injection, schedule: Q01DX001 (ip), vehicle: saline with Tween-80
  T/C: 114 % of control
endpoint: mean survival time, dose: 8.0 mg/kg/injection, schedule: Q01DX009 (ip), vehicle: saline + alcohol
  T/C: 175 % of control and 229 % of control
endpoint: mean survival time, dose: 8.0 mg/kg/injection, schedule: Q08DX002 (ip), vehicle: saline + alcohol
  T/C: 206 % of control
endpoint: mean survival time, dose: 10.0 mg/kg/injection, schedule: Q04DX003 (ip), vehicle: other
  T/C: 371 % of control
endpoint: mean survival time, dose: 12.5 mg/kg/injection, schedule: Q01DX001 (ip), vehicle: distilled water + Tween-80
  T/C: 340 % of control
endpoint: mean survival time, dose: 12.5 mg/kg/injection, schedule: Q01DX001 (ip), vehicle: saline + alcohol
  T/C: 104 % of control
endpoint: mean survival time, dose: 16.0 mg/kg/injection, schedule: Q01DX001 (ip), vehicle: other
  T/C: 283 % of control
endpoint: mean survival time, dose: 16.0 mg/kg/injection, schedule: Q01DX001 (ip), vehicle: saline + alcohol
  T/C: 120 % of control
endpoint: mean survival time, dose: 16.0 mg/kg/injection, schedule: Q01DX009 (ip), vehicle: saline + alcohol
  T/C: 207 % of control
endpoint: mean survival time, dose: 16.0 mg/kg/injection, schedule: Q08DX002 (ip), vehicle: saline + alcohol
  T/C: 289 % of control
endpoint: mean survival time, dose: 20.0 mg/kg/injection, schedule: Q04DX003 (ip), vehicle: other
  T/C: 392 % of control
endpoint: mean survival time, dose: 24.0 mg/kg/injection, schedule: Q01DX009 (ip), vehicle: saline + alcohol
  T/C: 107 % of control
endpoint: mean survival time, dose: 24.0 mg/kg/injection, schedule: Q08DX002 (ip), vehicle: saline + alcohol
  T/C: 550 % of control
endpoint: mean survival time, dose: 25.0 mg/kg/injection, schedule: Q01DX001 (ip), vehicle: distilled water + Tween-80
  T/C: 406 % of control
endpoint: mean survival time, dose: 25.0 mg/kg/injection, schedule: Q01DX001 (ip), vehicle: saline + alcohol
  T/C: 95 % of control
endpoint: mean survival time, dose: 25.0 mg/kg/injection, schedule: Q01DX001 (ip), vehicle: saline with Tween-80
  T/C: 393 % of control
endpoint: mean survival time, dose: 27.0 mg/kg/injection, schedule: Q01DX001 (ip), vehicle: saline with Tween-80
  T/C: 813 % of control
endpoint: mean survival time, dose: 32.0 mg/kg/injection, schedule: Q01DX001 (ip), vehicle: other
  T/C: 357 % of control
endpoint: mean survival time, dose: 32.0 mg/kg/injection, schedule: Q01DX001 (ip), vehicle: saline + alcohol
  T/C: 451 % of control
endpoint: mean survival time, dose: 32.0 mg/kg/injection, schedule: Q01DX009 (ip), vehicle: saline + alcohol
  T/C: 256 % of control and 103 % of control
endpoint: mean survival time, dose: 40.0 mg/kg/injection, schedule: Q01DX001 (ip), vehicle: saline with Tween-80
  T/C: 555 % of control
endpoint: mean survival time, dose: 48.0 mg/kg/injection, schedule: Q01DX009 (ip), vehicle: saline + alcohol
  T/C: 96 % of control
endpoint: mean survival time, dose: 50.0 mg/kg/injection, schedule: Q01DX001 (ip), vehicle: saline + alcohol
  T/C: 158 % of control
endpoint: mean survival time, dose: 50.0 mg/kg/injection, schedule: Q01DX001 (ip), vehicle: saline with Tween-80
  T/C: 213 % of control and 473 % of control
endpoint: mean survival time, dose: 64.0 mg/kg/injection, schedule: Q01DX001 (ip), vehicle: other
  T/C: 204 % of control
endpoint: mean survival time, dose: 64.0 mg/kg/injection, schedule: Q01DX009 (ip), vehicle: saline + alcohol
  T/C: 86 % of control
endpoint: median survival time, dose: 3.12 mg/kg/injection, schedule: Q01DX001 (ip), vehicle: other
  T/C: 121 % of control and 110 % of control
endpoint: median survival time, dose: 3.12 mg/kg/injection, schedule: Q01DX001 (ip), vehicle: saline
  T/C: 98 % of control and 101 % of control
endpoint: median survival time, dose: 6.25 mg/kg/injection, schedule: Q01DX001 (ip), vehicle: other
  T/C: 158 % of control
endpoint: median survival time, dose: 6.25 mg/kg/injection, schedule: Q01DX001 (ip), vehicle: saline
  T/C: 98 % of control and 103 % of control
endpoint: median survival time, dose: 9.0 mg/kg/injection, schedule: Q04DX002 (ip), vehicle: saline + Tween-80 + alcohol
  T/C: 180 % of control
endpoint: median survival time, dose: 12.5 mg/kg/injection, schedule: Q01DX001 (ip), vehicle: other
  T/C: 159 % of control and 297 % of control
endpoint: median survival time, dose: 12.5 mg/kg/injection, schedule: Q01DX001 (ip), vehicle: saline
  T/C: 103 % of control
endpoint: median survival time, dose: 14.4 mg/kg/injection, schedule: Q01DX001 (ip), vehicle: saline + alcohol
  T/C: 718 % of control
endpoint: median survival time, dose: 14.4 mg/kg/injection, schedule: Q01DX001 (ip), vehicle: saline with Tween-80
  T/C: 121 % of control
endpoint: median survival time, dose: 14.4 mg/kg/injection, schedule: Q04DX002 (ip), vehicle: saline + alcohol
  T/C: 622 % of control
endpoint: median survival time, dose: 15.0 mg/kg/injection, schedule: Q04DX002 (ip), vehicle: saline + Tween-80 + alcohol
  T/C: 351 % of control
endpoint: median survival time, dose: 24.0 mg/kg/injection, schedule: Q01DX001 (ip), vehicle: other
  T/C: 581 % of control
endpoint: median survival time, dose: 24.0 mg/kg/injection, schedule: Q01DX001 (ip), vehicle: saline + alcohol
  T/C: 718 % of control
endpoint: median survival time, dose: 24.0 mg/kg/injection, schedule: Q04DX002 (ip), vehicle: saline + alcohol
  T/C: 623 % of control
endpoint: median survival time, dose: 25.0 mg/kg/injection, schedule: Q01DX001 (ip), vehicle: other
  T/C: 297 % of control and 340 % of control
endpoint: median survival time, dose: 25.0 mg/kg/injection, schedule: Q04DX002 (ip), vehicle: saline + Tween-80 + alcohol
  T/C: 244 % of control
endpoint: median survival time, dose: 36.0 mg/kg/injection, schedule: Q01DX001 (ip), vehicle: other
  T/C: 580 % of control
endpoint: median survival time, dose: 40.0 mg/kg/injection, schedule: Q01DX001 (ip), vehicle: saline + alcohol
  T/C: 720 % of control
endpoint: median survival time, dose: 40.0 mg/kg/injection, schedule: Q01DX001 (ip), vehicle: saline with Tween-80
  T/C: 157 % of control
endpoint: median survival time, dose: 40.0 mg/kg/injection, schedule: Q01DX001 (oral), vehicle: saline with Tween-80
  T/C: 393 % of control and 590 % of control and 983 % of control
endpoint: median survival time, dose: 40.0 mg/kg/injection, schedule: Q04DX002 (ip), vehicle: saline + alcohol
  T/C: 286 % of control
endpoint: median survival time, dose: 42.0 mg/kg/injection, schedule: Q04DX002 (ip), vehicle: saline + Tween-80 + alcohol
  T/C: 170 % of control
endpoint: median survival time, dose: 50.0 mg/kg/injection, schedule: Q01DX001 (ip), vehicle: other
  T/C: 158 % of control and 193 % of control
endpoint: median survival time, dose: 50.0 mg/kg/injection, schedule: Q01DX001 (oral), vehicle: saline with Tween-80
  T/C: 193 % of control and 983 % of control (2×)
endpoint: median survival time, dose: 60.0 mg/kg/injection, schedule: Q01DX001 (ip), vehicle: other
  T/C: 119 % of control
endpoint: median survival time, dose: 60.0 mg/kg/injection, schedule: Q01DX001 (oral), vehicle: saline with Tween-80
  T/C: 185 % of control and 983 % of control (2×)
endpoint: median survival time, dose: 66.7 mg/kg/injection, schedule: Q01DX001 (ip), vehicle: saline + alcohol
  T/C: 328 % of control
endpoint: median survival time, dose: 66.7 mg/kg/injection, schedule: Q01DX001 (ip), vehicle: saline with Tween-80
  T/C: 463 % of control
endpoint: median survival time, dose: 100.0 mg/kg/injection, schedule: Q01DX001 (ip), vehicle: other
  T/C: 116 % of control
